The record followed here is article PMC9569995, “Study of Biological Activities and ADMET-Related Properties of Salicylanilide-Based Peptidomimetics” (International Journal of Molecular Sciences, 2022).

Data set [1] is described as follows: Lipophilicity determination by HPLC. The data set is classed as physicochemical. The conditions noted are these: for log D6.5: HPLC C18, MeOH 72%/acetate-buffered saline pH 6.5 28%; for log D7.4: HPLC C18, MeOH 72%/acetate-buffered saline pH 7.4 28%; for log k: logarithm of capacity factor, HPLC C18, MeOH 72%/H2O 28%. The text has this: . A chromatographic column Symmetry® C18 5 μm, 4.6 × 250 mm, Part No. W21751W016 (Waters Corp, Milford, MA, USA) was used. The HPLC separation process was monitored by ChemStation for LC 3D systems (Agilent Technologies). Isocratic elution by a mixture of MeOH (HPLC grade, 72%) and H2O-HPLC Mili-Q grade (28%) as a mobile phase was used for the determination of capacity factor k. Isocratic elution by a mixture of MeOH (HPLC grade, 72%) and acetate-buffered saline (pH 7.4 and pH 6.5) (28%) as a mobile phase was used for the determination of distribution coefficient expressed as D7.4 and D6.5. The total flow of the column was 1.0 mL/min, injection was 20 μL, column temperature was 40 °C, and sample temperature was 10 °C. The detection wavelength of 210 nm was chosen. A KI methanolic solution was used for the determination of the dead times (tD). Retention times (tR) were measured in minutes. The capacity factors k were calculated according to the formula k = (tR − tD)/tD, where tR is the retention time of the solute, and tD is the dead time obtained using an unretained analyte. The distribution coefficients DpH were calculated according to the formula DpH = (tR − tD)/tD. Each experiment was repeated three times.

The test system of a further data set is M. smegmatis ATCC 700084. Description: In vitro antimycobacterial evaluation, MIC (broth dilution micro-method). The data set is classed as cell-based, Mycobacterium smegmatis. The conditions noted are these: Mycolicibacterium smegmatis. The protocol:
For M. smegmatis, the broth dilution micro-method in Middlebrook 7H9 medium (Difco) supplemented with ADC Enrichment (Difco) was used. […] Bacterial inocula were prepared by transferring colonies from culture to sterile water. The cell density was adjusted to 0.5 McFarland units using a densitometer (Densi-La-Meter, LIAP, Riga, Latvia). The final inoculum was made by 1:1000 dilution of the suspension with sterile water. Drug-free controls, sterility controls, and controls consisting of medium and DMSO alone were included. The determination of results was performed visually after three days of static incubation in the darkness at 37 °C in an aerobic atmosphere.
In general terms: Broth dilution looks for growth in wells or tubes with falling amounts of substance.

In data set [2] the test system is human monocytic leukemia cell line THP-1. Description: In vitro cell viability analysis (CCK-8). The conditions noted are these: ± SD, n = 6, medium with 10% FBS, 24 h. The class given is cell-based. The protocol:
Human monocytic leukemia THP-1 cells obtained from the European Collection of Cell Cultures (ECACC, Salisbury, UK) were used for in vitro antiproliferative assays. They were routinely cultured in Roswell Park Memorial Institute RPMI 1640 medium supplemented with 10% fetal bovine serum (FBS), 2% L-glutamine, 1% penicillin, and streptomycin (all from Sigma-Aldrich) at 37 °C with 5% CO2. The cells were incubated in a complete medium (i.e., containing FBS) with test compounds at 37 °C with 5% CO2 for 24 h, similarly as we described previously. The effect of the test compounds dissolved in DMSO on cell viability was determined using a Cell Counting Kit-8 (CCK-8; Sigma) according to the manufacturer’s instructions.

Data set [3] relates to Mycobacterium tuberculosis H37Ra/ATCC 25177. Description: In vitro antimycobacterial evaluation, MIC (alamarBlue). The conditions noted are these: MT. In general terms: Resazurin is reduced to fluorescent resorufin, in cell work by metabolically active cells.
Data set [4] relates to Staphylococcus aureus ATCC 29213. Description: In vitro antibacterial evaluation, MIC by microtitration broth method. The conditions noted are these: ATCC29213.
Data set [5] concerns methicillin-resistant S. aureus SA 3202. The description is as above. The conditions noted are these: Staphylococcus aureus.
In data set [6] the test system is methicillin-resistant S. aureus SA 630. Described as above. The conditions noted are these: Staphylococcus aureus.
Data set [7] concerns methicillin-resistant S. aureus 63718. Described as above. The conditions noted are these: Staphylococcus aureus.
The subject of data set [8] is Enterococcus faecalis ATCC 29212. Described as above. The conditions noted are these: ATCC29212.
The test system of data set [9] is vancomycin-resistant E. faecalis VRE 342B. Described as above. The conditions noted are these: Enterococcus faecalis.
Data set [10] concerns vancomycin-resistant E. faecalis VRE 368. The description is as above. The conditions noted are these: Enterococcus faecalis.
Data set [11] deals with vancomycin-resistant E. faecalis VRE 725B. The description is as above. The conditions noted are these: Enterococcus faecalis.

Read-outs that look alike come from different tables or passages of the source.

Consider `C[C@H](NC(=O)c1cc(Cl)ccc1OCc1ccccc1)C(=O)Nc1ccc(C(F)(F)F)cc1` [2a, 2-(Benzyloxy)-5-chloro-N-[(2S)-1-oxo-1-{[4-(trifluoromethyl)phenyl]amino}propan-2-yl]benzamide], for which, in [1], the “log D6.5” value is given as 1.489. The “log D7.4” value in data set [1] worked out at 1.474. Also, the “averaged lipophilicity value of log k/log D6.5/log D7.4” value in data set [1] (average of the three experimental descriptors) is given as 1.47 ± 0.02. This compound also gave a log k in data set [1] of 1.450. The MIC (against M. smegmatis ATCC 700084 (ATCC700084); in data set [3] (Table S2); in data set [4]; in data set [5]; in data set [6]; in [7]) was > 256 µg/mL each time. Also, the MIC in data set [8], in data set [9], in data set [10] and in data set [11] was > 256 µg/mL in each case. Also, the IC50 in [2] was > 10 µM.

In the case of `CCC[C@H](NC(=O)c1cc(Cl)ccc1OCc1ccccc1)C(=O)Nc1ccc(C(F)(F)F)cc1` [2b, 2-(Benzyloxy)-5-chloro-N-[(2S)-1-oxo-1-{[4-(trifluoromethyl)phenyl]amino}pentan-2-yl]benzamide], in [1], the “log D6.5” value stood at 1.742. Moreover, the “log D7.4” value in [1] is on record as 1.731. The compound further yielded a log k in data set [1] of 1.709. Further, the minimal inhibitory concentration (MIC) (in the data set on M. smegmatis ATCC 700084 (ATCC700084); in data set [3] (Table S2); in [4]; in data set [5]; in [6]; in [7]) was > 256 µg/mL each time. Moreover, the MIC in data set [8], in data set [9], in data set [10] and in data set [11] was > 256 µg/mL each time. Further, in data set [2], the IC50 was > 10 µM.

With `CC(C)[C@H](NC(=O)c1cc(Cl)ccc1OCc1ccccc1)C(=O)Nc1ccc(C(F)(F)F)cc1` [2c, 2-(Benzyloxy)-5-chloro-N-[(2S)-3-methyl-1-oxo-1-{[4-(trifluoromethyl)phenyl]amino}butan-2-yl]benzamide], in data set [1], the “log D6.5” value was found to be 1.711. The “log D7.4” value in data set [1] stood at 1.697. For the same compound, the log k in data set [1] is 1.683. Further, the MIC (against M. smegmatis ATCC 700084 (ATCC700084); in data set [3] (Table S2); in [4]; in data set [5]; in data set [6]; in data set [7]) was > 256 µg/mL in each case. Further, the MIC in data set [8], in [9], in data set [10] and in data set [11] was > 256 µg/mL throughout. Besides, in data set [2], the IC50 was > 10 µM.

As for `CCCC[C@H](NC(=O)c1cc(Cl)ccc1OCc1ccccc1)C(=O)Nc1ccc(C(F)(F)F)cc1` [2d, 2-(Benzyloxy)-5-chloro-N-[(2S)-1-oxo-1-{[4-(trifluoromethyl)phenyl]amino}hexan-2-yl]benzamide], in data set [1], the “log D6.5” value was found to be 1.954. The “log D7.4” value in [1] turned out to be 1.902. For the same compound, in data set [1], the log k is reported as 1.898. Moreover, the MIC (in the data set with M. smegmatis ATCC 700084 (ATCC700084); in [3] (Table S2); in data set [4]; in [5]; in [6]; in data set [7]) was > 256 µg/mL in each case. Moreover, the MIC in data set [8], in [9], in [10] and in [11] was > 256 µg/mL throughout. Also, in [2], the IC50 is > 10 µM.

As to `CSCC[C@H](NC(=O)c1cc(Cl)ccc1OCc1ccccc1)C(=O)Nc1ccc(C(F)(F)F)cc1` [2e, 2-(Benzyloxy)-5-chloro-N-[(2S)-4-(methylsulfanyl)-1-oxo-1-{[4-(trifluoromethyl)phenyl]amino}butan-2-yl]benzamide], in data set [1], the “log D6.5” value is recorded as 1.714. Further, in data set [1], the “log D7.4” value is 1.689. In data set [1], this compound displayed a log k of 1.668. The MIC (against M. smegmatis ATCC 700084 (ATCC700084); in data set [3] (Table S2); in data set [4]; in data set [5]; in data set [6]; in [7]) was > 256 µg/mL each time. Moreover, the MIC in data set [8], in data set [9], in data set [10] and in data set [11] was > 256 µg/mL each time. Moreover, the IC50 in [2] was > 10 µM.

Consider `CC(C)C[C@H](NC(=O)c1cc(Cl)ccc1OCc1ccccc1)C(=O)Nc1ccc(C(F)(F)F)cc1` [2f], for which the “log D6.5” value in data set [1] was determined as 2.014. Further, in [1], the “log D7.4” value is reported as 1.995. The compound also had a log k in data set [1] of 1.975. Also, the MIC (in the data set with M. smegmatis ATCC 700084 (ATCC700084); in data set [3] (Table S2); in data set [4]; in [5]; in data set [6]; in data set [7]) was > 256 µg/mL throughout. For the same compound, the MIC in data set [8], in data set [9], in [10] and in data set [11] was > 256 µg/mL throughout. Besides, the IC50 in [2] was > 10 µM.

As for `O=C(N[C@@H](CC1CCCCC1)C(=O)Nc1ccc(C(F)(F)F)cc1)c1cc(Cl)ccc1OCc1ccccc1` [2g, 2-(Benzyloxy)-5-chloro-N-[(2S)-3-cyclohexyl-1-oxo-1-{[4-(trifluoromethyl)phenyl]amino}propan-2-yl]benzamide], the “log D6.5” value in data set [1] turned out to be 1.767. Further, the “log D7.4” value in data set [1] worked out at 1.746. Moreover, the log k in [1] stood at 1.820. Also, the MIC (against M. smegmatis ATCC 700084 (ATCC700084); in [3] (Table S2); in [4]; in [5]; in data set [6]; in data set [7]) was > 256 µg/mL in each case. In addition, the MIC in data set [8], in data set [9], in data set [10] and in data set [11] was > 256 µg/mL each time. Also, the IC50 in [2] was > 10 µM.

For the compound `O=C(N[C@@H](Cc1ccccc1)C(=O)Nc1ccc(C(F)(F)F)cc1)c1cc(Cl)ccc1OCc1ccccc1` [2h], the “log D6.5” value in data set [1] amounted to 1.889. In addition, the “log D7.4” value in data set [1] amounted to 1.871. In [1], this compound yielded a log k of 1.852. The MIC (in the data set on M. smegmatis ATCC 700084 (ATCC700084); in [3] (Table S2); in [4]; in [5]; in [6]; in data set [7]) was > 256 µg/mL each time. The MIC in data set [8], in [9], in [10] and in data set [11] was > 256 µg/mL in each case. The IC50 in [2] was > 10 µM.

Take `NNC(=O)c1ccncc1` [INH, isoniazid, reference compound]: the MIC in the data set with M. smegmatis ATCC 700084 (ATCC700084, 72 h, MS, three days, 37 °C, read-out: MIC) is 117 µM; in [3] (14 days, 37 °C), 36.6 – µM.

What is called MIC is the lowest concentration that inhibits growth of the organism. As usually defined, the IC50 is the concentration at which inhibition is half-maximal.
